# Laboratory results published in patent US11845724B2, “USP30 inhibitors and uses thereof” (Vincere Biosciences, Inc., priority 2019, dated 2023).
# Like-named read-outs stand apart in the source and are kept apart here.
# Tests used:
# USP30 = USP30 (Homo sapiens (Human), UniProt Q70CQ3); assay: Dundee MALDI-TOF mass spectrometry assay (IC50); type: biochemical; details: USP30 25 ng/μl, K48-linked diubiquitin 5.6 μM, avg, read-out: Dundee IC50 μM (avg in vitro MS assay)
# Protocol: Compounds were tested in a MALDI-TOF assay based on the paper by Ritorto et al. (Ritorto et al. Screening of DUB activity and specificity by MALDI-TOF mass spectrometry. Nat. […] USP30 (25 ng/μl) tested against K48-linked diubiquitin (5.6 μM). USP30 was diluted in a buffer containing 40 mM Tris, 0.01% BSA, 1 mM DTT and K48 in 40 mM Tris, 0.01% BSA. The compounds were pre-incubated with the USP30 for 5 mins at room temp before the K48 dimer addition. The assay mixture was then incubated for 45 mins at room temp. The assay was stopped by the addition of TFA to a final concentration of 2% (v/v). […] Then 250 nl of these solutions were spotted onto an MTP AnchorChip 1,536 TF and this is analysed on the Bruker rapifleX MALDI-TOF.
# [1] = target: recombinant USP30 (amino acids 57-517 of the human sequence) (Homo sapiens (Human), UniProt Q70CQ3); assay: In vitro USP30 biochemical assay (Ubiquitin-Rhodamine)
# Protocol: In vitro biochemical assay to establish the potency of compounds for USP30 inhibition: a 384-well plate assay using a fluorophore tagged substrate of USP30 was used for in vitro screening of compounds. Each compound was tested at 10 different concentrations (0.5 to 10,000 nM) in duplicate wells. Compounds were pre-incubated at 25° C. for 30 min in an assay buffer consisting of 20 mM Tris/HCl, pH8.0, 1 mM GSH, 0.01% Triton X-100, 0.03% BGG and 1.5 nM recombinant USP30 (amino acids 57-517 of the human sequence with a C-terminal 6-His tag). Following the pre-incubation, Ubiquitin-Rhodamine substrate dissolved in the assay buffer was added at the final concentration of 25 nM to each well and plates were incubated at 25° C. for an additional 75 minutes. The reaction was stopped by adding 10 mM citric acid and fluorescence was read using excitation wavelength 485 nm, emission of 535 nm. Data were analyzed using Graph Pad Prism software with a four-parameter (floating slope) fit to log concentration data to determine IC50s.
# [2] = USP30 IC50 μM (avg), Ubiquitin-Rhodamine substrate 25 nM, 1.5 nM recombinant USP30
# [3] = read-out: USP30 IC50 μM (avg), Ubiquitin-Rhodamine substrate 25 nM, 1.5 nM recombinant USP30
# Chain of recombinant USP30 (amino acids 57-517 of the human sequence) (Q70CQ3 57-517): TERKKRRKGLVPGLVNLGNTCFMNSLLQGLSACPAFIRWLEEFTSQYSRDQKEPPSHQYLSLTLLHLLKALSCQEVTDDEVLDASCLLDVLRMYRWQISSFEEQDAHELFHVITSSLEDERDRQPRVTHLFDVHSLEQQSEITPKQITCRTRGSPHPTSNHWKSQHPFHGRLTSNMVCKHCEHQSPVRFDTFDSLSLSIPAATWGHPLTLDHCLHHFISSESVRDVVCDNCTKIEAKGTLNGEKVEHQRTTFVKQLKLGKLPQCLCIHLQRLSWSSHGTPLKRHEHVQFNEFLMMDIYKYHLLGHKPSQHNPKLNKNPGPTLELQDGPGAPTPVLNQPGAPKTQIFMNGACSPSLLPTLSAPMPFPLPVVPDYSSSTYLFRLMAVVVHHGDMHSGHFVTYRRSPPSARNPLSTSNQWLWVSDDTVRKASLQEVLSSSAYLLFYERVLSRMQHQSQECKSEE
# Chain of USP30 (Q70CQ3 whole entry): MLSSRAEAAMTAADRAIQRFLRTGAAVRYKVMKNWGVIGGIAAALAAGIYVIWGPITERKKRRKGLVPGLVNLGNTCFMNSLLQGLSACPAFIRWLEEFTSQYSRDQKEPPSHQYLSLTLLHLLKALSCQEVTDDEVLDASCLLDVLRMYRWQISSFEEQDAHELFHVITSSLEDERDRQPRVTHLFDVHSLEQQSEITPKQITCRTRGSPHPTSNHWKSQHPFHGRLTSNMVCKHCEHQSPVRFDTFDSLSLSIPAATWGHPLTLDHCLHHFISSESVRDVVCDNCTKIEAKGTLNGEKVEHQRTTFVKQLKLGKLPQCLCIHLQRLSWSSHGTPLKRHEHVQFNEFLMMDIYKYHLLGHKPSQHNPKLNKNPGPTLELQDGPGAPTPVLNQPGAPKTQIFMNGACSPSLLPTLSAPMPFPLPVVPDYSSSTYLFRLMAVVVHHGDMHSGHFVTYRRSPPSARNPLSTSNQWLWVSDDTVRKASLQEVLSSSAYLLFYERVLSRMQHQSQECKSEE
IC50 (USP30) [µM],"IC50 [1, 2] [µM]","IC50 [1, 3] [µM]",Compound
0.05 to 1,0.05 to 1,,"CN1CCC(NS(=O)(=O)c2ccc(NC(=O)[C@H](Cc3ccccc3)NC(=O)c3ccc(F)cc3)cc2)CC1 [Compound I-33, (S)-4-fluoro-N-(1-(4-(N-(1-methylpiperidin-4-yl)sulfamoyl)phenylamino)-1-oxo-3-phenylpropan-2-yl)benzamide]"
< 0.05,0.05 to 1,,"CC1(NS(=O)(=O)c2ccc(NC(=O)[C@H](Cc3ccccc3)NC(=O)c3ccc(F)cc3)cn2)COC1 [Compound I-115, (S)-4-fluoro-N-(1-(6-(N-(3-methyloxetan-3-yl)sulfamoyl)pyridin-3-ylamino)-1-oxo-3-phenylpropan-2-yl)benzamide]"
0.05 to 1,0.05 to 1,,"O=C(N[C@@H](Cc1ccccc1)C(=O)Nc1ccc(S(=O)(=O)NCCO)cn1)c1ccc(F)cc1 [Compound I-121, (S)-4-fluoro-N-(1-(5-(N-(2-hydroxyethyl)sulfamoyl)pyridin-2-ylamino)-1-oxo-3-phenylpropan-2-yl)benzamide]"
0.05 to 1,0.05 to 1,,"COCCNS(=O)(=O)c1ccc(NC(=O)[C@H](Cc2ccccc2)NC(=O)c2ccc(F)cc2)nc1 [Compound I-120, (S)-4-fluoro-N-(1-(5-(N-(2-methoxyethyl)sulfamoyl)pyridin-2-ylamino)-1-oxo-3-phenylpropan-2-yl)benzamide]"
< 0.05,0.05 to 1,,CCNS(=O)(=O)c1cccc2c(NC(=O)[C@H](Cc3ccccc3)NC(=O)c3ccc(F)cc3)cccc12 [Compound I-125]
0.05 to 1,0.05 to 1,,"O=C(N[C@@H](Cc1ccccn1)C(=O)Nc1ccc(S(=O)(=O)NC2COC2)cc1)c1ccc(F)cc1 [Compound I-140, (S)-4-fluoro-N-(1-(4-(N-oxetan-3-ylsulfamoyl)phenylamino)-1-oxo-3-(pyridin-2-yl)propan-2-yl)benzamide]"
0.05 to 1,,< 0.05,"CC(C)(C)NS(=O)(=O)c1ccc(NC(=O)[C@H](Cc2ccccc2)NC(=O)c2ccc(F)cn2)cc1 [Compound I-85, (S)-N-(1-(4-(N-tert-butylsulfamoyl)phenylamino)-1-oxo-3-phenylpropan-2-yl)-5-fluoropicolinamide]"
< 0.05,,< 0.05,"CC(C)(C)NS(=O)(=O)c1ccc(NC(=O)[C@H](Cc2ccccc2)NC(=O)c2ccc(F)cc2)cc1F [Compound I-156, (S)-N-(1-(4-(N-tert-butylsulfamoyl)-3-fluorophenylamino)-1-oxo-3-phenylpropan-2-yl)-4-fluorobenzamide]"
< 0.05,0.05 to 1,,"COc1cc(NC(=O)[C@H](Cc2ccccc2)NC(=O)c2ccc(F)cc2)ccc1S(=O)(=O)NCCO [Compound I-152, (S)-4-fluoro-N-(1-(4-(N-(2-hydroxyethyl)sulfamoyl)-3-methoxyphenylamino)-1-oxo-3-phenylpropan-2-yl)benzamide]"
< 0.05,0.05 to 1,,"CCNS(=O)(=O)c1cccc2c(NC(=O)[C@H](Cc3ccccc3)NC(=O)C3CCCCC3)cccc12 [Compound I-124, (S)-N-(1-(5-(N-ethylsulfamoyl)naphthalen-1-ylamino)-1-oxo-3-phenylpropan-2-yl)cyclohexanecarboxamide]"
0.05 to 1,0.05 to 1,,"O=C(N[C@@H](Cc1ccccc1)C(=O)Nc1ccc(S(=O)(=O)NC2COC2)nc1)c1ccc(F)cc1 [Compound I-106, (S)-4-fluoro-N-(1-(6-(N-oxetan-3-ylsulfamoyl)pyridin-3-ylamino)-1-oxo-3-phenylpropan-2-yl)benzamide]"
0.05 to 1,0.05 to 1,,"CC(C)(C)NS(=O)(=O)c1ccc(NC(=O)[C@H](Cc2ccccc2)N2CCc3ccccc3C2=O)cc1 [Compound I-84, (S)-N-(4-(N-tert-butylsulfamoyl)phenyl)-2-(1-oxo-3,4-dihydroisoquinolin-2(1H)-yl)-3-phenylpropanamide]"
< 0.05,0.05 to 1,,"C[C@H](NS(=O)(=O)c1ccc(NC(=O)[C@H](Cc2ccccc2)NC(=O)c2ccc(F)cc2)cc1)C(F)(F)F [Compound I-13, 4-fluoro-N-((S)-1-oxo-3-phenyl-1-(4-(N-((S)-1,1,1-trifluoropropan-2-yl)sulfamoyl)phenylamino)propan-2-yl)benzamide]"
0.05 to 1,0.05 to 1,,"O=C(N[C@@H](Cc1ccccc1)C(=O)Nc1ccc(S(=O)(=O)NCCN2CCOCC2)cn1)c1ccc(F)cc1 [Compound I-122, (S)-4-fluoro-N-(1-(5-(N-(2-morpholinoethyl)sulfamoyl)pyridin-2-ylamino)-1-oxo-3-phenylpropan-2-yl)benzamide]"
0.05 to 1,0.05 to 1,,"O=C(N[C@@H](Cc1ccccc1)C(=O)Nc1ccc(S(=O)(=O)NC2COC2)cc1)c1cccc(F)c1 [Compound I-94, (S)-3-fluoro-N-(1-(4-(N-oxetan-3-ylsulfamoyl)phenylamino)-1-oxo-3-phenylpropan-2-yl)benzamide]"
> 10,,> 10,"O=C(N[C@H](Cc1ccccc1)C(=O)Nc1ccc(S(=O)(=O)NC23CC(C2)C3)cc1)c1ccc(F)cc1 [Compound I-99, (R)-N-(1-(4-(N-bicyclo[1.1.1]pentan-1-ylsulfamoyl)phenylamino)-1-oxo-3-phenylpropan-2-yl)-4-fluorobenzamide]"
< 0.05,0.05 to 1,,"CCNS(=O)(=O)c1ccc(NC(=O)[C@H](Cc2ccccc2)NC(=O)c2ccc(F)cc2)cc1F [Compound I-155, (S)-N-(1-(4-(N-ethylsulfamoyl)-3-fluorophenylamino)-1-oxo-3-phenylpropan-2-yl)-4-fluorobenzamide]"
1 to 10,1 to 10,,"CN(C(=O)c1ccc(F)cc1)[C@@H](Cc1cccnc1)C(=O)Nc1ccc(S(=O)(=O)NC23CC(C2)C3)cc1 [Compound I-92, (S)-N-(1-(4-(N-bicyclo[1.1.1]pentan-1-ylsulfamoyl)phenylamino)-1-oxo-3-(pyridin-3-yl)propan-2-yl)-4-fluoro-N-methylbenzamide]"
0.05 to 1,0.05 to 1,,"O=C(N[C@@H](Cc1ccccc1)C(=O)Nc1ccc(S(=O)(=O)NC2CCCC2)cc1)c1ccccn1 [Compound I-77, (S)-N-(1-(4-(N-cyclopentylsulfamoyl)phenylamino)-1-oxo-3-phenylpropan-2-yl)picolinamide]"
0.05 to 1,0.05 to 1,,"O=C(N[C@@H](Cc1ccccc1)C(=O)Nc1ccc(S(=O)(=O)NC2CCCC2)cc1)c1ccc(F)cn1 [Compound I-74, (S)-N-(1-(4-(N-cyclopentylsulfamoyl)phenylamino)-1-oxo-3-phenylpropan-2-yl)-5-fluoropicolinamide]"
0.05 to 1,0.05 to 1,,"COc1cc(S(=O)(=O)NC2COC2)ccc1NC(=O)[C@H](Cc1ccccc1)NC(=O)c1ccc(F)cc1 [Compound I-144, (S)-4-fluoro-N-(1-(2-methoxy-4-(N-oxetan-3-ylsulfamoyl)phenylamino)-1-oxo-3-phenylpropan-2-yl)benzamide]"
1 to 10,,> 10,"CCNS(=O)(=O)N1CCCc2c(NC(=O)[C@H](Cc3ccccc3)NC(=O)C3CCCCC3)cccc21 [Compound I-126, (S)-N-(1-(1-(N-ethylsulfamoyl)-1,2,3,4-tetrahydroquinolin-5-ylamino)-1-oxo-3-phenylpropan-2-yl)cyclohexanecarboxamide]"
< 0.05,0.05 to 1,,"CC(C)(C)NS(=O)(=O)c1ccc(NC(=O)[C@H](Cc2ccccc2)NC(=O)c2cccc(F)c2)cc1 [Compound I-88, (S)-N-(1-(4-(N-tert-butylsulfamoyl)phenylamino)-1-oxo-3-phenylpropan-2-yl)-3-fluorobenzamide]"
1 to 10,1 to 10,,"CC(C)(C)NS(=O)(=O)N1CCCc2c(NC(=O)[C@H](Cc3ccccc3)NC(=O)C3CCCCC3)cccc21 [Compound I-129, (S)-N-(1-(1-(N-tert-butylsulfamoyl)-1,2,3,4-tetrahydroquinolin-5-ylamino)-1-oxo-3-phenylpropan-2-yl)cyclohexanecarboxamide]"
0.05 to 1,0.05 to 1,,"O=C(N[C@@H](Cc1ccccc1)C(=O)Nc1ccc(S(=O)(=O)NC2CCC2)cc1)c1cccnc1 [Compound I-81, (S)-N-(1-(4-(N-cyclobutylsulfamoyl)phenylamino)-1-oxo-3-phenylpropan-2-yl)nicotinamide]"
< 0.05,0.05 to 1,,"COc1cc(NC(=O)[C@H](Cc2ccccc2)NC(=O)c2ccc(F)cc2)ccc1S(=O)(=O)NC1CCOCC1 [Compound I-150, (S)-4-fluoro-N-(1-(3-methoxy-4-(N-(tetrahydro-2H-pyran-4-yl)sulfamoyl)phenylamino)-1-oxo-3-phenylpropan-2-yl)benzamide]"
> 10,1 to 10,,"CCNS(=O)(=O)c1ccc(NC(=O)[C@H](Cc2cccnc2)N(C)C(=O)c2ccc(F)cc2)cc1 [Compound I-90, (S)-N-(1-(4-(N-ethylsulfamoyl)phenylamino)-1-oxo-3-(pyridin-3-yl)propan-2-yl)-4-fluoro-N-methylbenzamide]"
< 0.05,0.05 to 1,,"O=C(N[C@@H](Cc1ccccn1)C(=O)Nc1ccc(S(=O)(=O)NC2CCC2)cc1)c1ccc(F)cc1 [Compound I-142, (S)-N-(1-(4-(N-cyclobutylsulfamoyl)phenylamino)-1-oxo-3-(pyridin-2-yl)propan-2-yl)-4-fluorobenzamide]"
